Test results taken from patent publication US11873309B2, “Heterocyclic compounds as immunomodulators” (Incyte Corporation, priority 2016, dated 2024).
pIC50: −log10 of the molar value.

Target: T1, PD-1/PD-L1 protein/protein interaction (recombinant human PD-L1 protein (19-238), recombinant human PD-1 protein (25-167)) (Homo sapiens, UniProt Q9NZQ7)
T1 construct: Recombinant human PD-L1 protein (19-238) with a His-tag at the C-terminus; purchased AcroBiosystems PD1-H5229 (PD-L1); PD1-H5257 (PD-1)
T1 sequence (Q9NZQ7 19-238): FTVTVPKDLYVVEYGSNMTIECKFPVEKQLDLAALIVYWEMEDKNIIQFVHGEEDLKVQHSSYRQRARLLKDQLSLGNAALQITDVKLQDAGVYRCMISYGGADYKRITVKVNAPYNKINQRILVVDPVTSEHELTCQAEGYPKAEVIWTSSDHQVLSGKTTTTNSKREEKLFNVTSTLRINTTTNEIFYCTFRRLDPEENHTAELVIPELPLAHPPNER
Assay: PD-1/PD-L1 Homogeneous Time-Resolved Fluorescence (HTRF) Binding Assay
Details: 25° C., PBS buffer pH 7.4, 40 minutes preincubation with inhibitors
Description: Example A. PD-1/PD-L1 Homogeneous Time-Resolved Fluorescence (HTRF) Binding Assay
The assays were conducted in a standard black 384-well polystyrene plate with a final volume of 20 μL. Inhibitors were first serially diluted in DMSO and then added to the plate wells before the addition of other reaction components. The final concentration of DMSO in the assay was 1%. The assays were carried out at 25° C. in the PBS buffer (pH 7.4) with 0.05% Tween-20 and 0.1% BSA. Recombinant human PD-L1 protein (19-238) with a His-tag at the C-terminus was purchased from AcroBiosystems (PD1-H5229). Recombinant human PD-1 protein (25-167) with Fc tag at the C-terminus was also purchased from AcroBiosystems (PD1-H5257). PD-L1 and PD-1 proteins were diluted in the assay buffer and 10 μL was added to the plate well. Plates were centrifuged and proteins were preincubated with inhibitors for 40 minutes. The incubation was followed by the addition of 10 μL of HTRF detection buffer supplemented with Europium cryptate-labeled anti-human IgG (PerkinElmer-AD0212) specific for Fc and anti-His antibody conjugated to SureLight®-Allophycocyanin (APC, PerkinElmer-AD0059H). After centrifugation, the plate was incubated at 25° C. for 60 min. before reading on a PHERAstar FS plate reader (665 nm/620 nm ratio). Final concentrations in the assay were […], 10 nM PD-L1, 1 nM europium anti-human IgG and 20 nM anti-His-Allophycocyanin. IC50 determination was performed by fitting the curve of percent control activity versus the log of the inhibitor concentration using the GraphPad Prism 5.0 software.

Row | Compound | pIC50
1 | N#Cc1c(NC(=O)c2nc3c(s2)CNCC3)cccc1-c1ccc2c(c1)OCCO2 [Example 1, N-[2-cyano-3-(2,3-dihydro-1,4-benzodioxin-6-yl)phenyl]-4,5,6,7-tetrahydro[1,3]thiazolo[5,4-c]pyridine-2-carboxamide] | ≥ 7.00
2 | N#Cc1c(NC(=O)c2nc3c(s2)CNCC3)cccc1-c1ccccc1 [Example 2, N-(2-cyanobiphenyl-3-yl)-4,5,6,7-tetrahydro[1,3]thiazolo[5,4-c]pyridine-2-carboxamide] | ≥ 7.00
3 | Cn1ncc2c(-c3cccc(NC(=O)c4nc5c(s4)CNCC5)c3C#N)cccc21 [Example 3, N-[2-cyano-3-(1-methyl-1H-indazol-4-yl)phenyl]-4,5,6,7-tetrahydro[1,3]thiazolo[5,4-c]pyridine-2-carboxamide] | ≥ 7.00
4 | N#Cc1c(NC(=O)c2nc3c(s2)CNCC3)cccc1-c1ccccc1F [Example 4, N-(2-cyano-2′-fluorobiphenyl-3-yl)-4,5,6,7-tetrahydro[1,3]thiazolo[5,4-c]pyridine-2-carboxamide] | ≥ 7.00
5 | COc1cccc(-c2cccc(NC(=O)c3nc4c(s3)CNCC4)c2C#N)c1F [Example 5, N-(2-cyano-2′-fluoro-3′-methoxybiphenyl-3-yl)-4,5,6,7-tetrahydro[1,3]thiazolo[5,4-c]pyridine-2-carboxamide] | ≥ 7.00
6 | N#Cc1c(NC(=O)c2nc3c(s2)CNCC3)cccc1-c1ccc2c(c1)OCC2 [Example 6, N-[2-cyano-3-(2,3-dihydro-1-benzofuran-6-yl)phenyl]-4,5,6,7-tetrahydro[1,3]thiazolo[5,4-c]pyridine-2-carboxamide] | ≥ 7.00
7 | N#Cc1c(NC(=O)c2nc3c(s2)CNCC3)cccc1C1=CCCCC1 [Example 7, N-(2-cyano-3-cyclohex-1-en-1-ylphenyl)-4,5,6,7-tetrahydro[1,3]thiazolo[5,4-c]pyridine-2-carboxamide] | ≥ 7.00
8 | N#Cc1c(NC(=O)c2nc3c(s2)CNCC3)cccc1C1CCCCC1 [Example 8, N-(2-cyano-3-cyclohexylphenyl)-4,5,6,7-tetrahydro[1,3]thiazolo[5,4-c]pyridine-2-carboxamide] | 6.30 to 7.00
9 | N#Cc1c(NC(=O)c2nc3c(s2)CNCC3)cccc1-c1c(F)cccc1F [Example 9, N-(2-cyano-2′,6′-difluorobiphenyl-3-yl)-4,5,6,7-tetrahydro[1,3]thiazolo[5,4-c]pyridine-2-carboxamide] | ≥ 7.00
10 | N#Cc1c(NC(=O)c2cc3n(n2)CCNC3)cccc1-c1ccc2c(c1)OCCO2 [Example 10, N-[2-cyano-3-(2,3-dihydro-1,4-benzodioxin-6-yl)phenyl]-4,5,6,7-tetrahydropyrazolo[1,5-a]pyrazine-2-carboxamide] | 6.30 to 7.00
11 | N#Cc1c(NC(=O)c2cc3n(n2)CCN(CCO)C3)cccc1-c1ccc2c(c1)OCCO2 [Example 11, N-[2-cyano-3-(2,3-dihydro-1,4-benzodioxin-6-yl)phenyl]-5-(2-hydroxyethyl)-4,5,6,7-tetrahydropyrazolo[1,5-a]pyrazine-2-carboxamide] | 6.30 to 7.00
12 | Cn1c(C(=O)Nc2cccc(-c3ccc4c(c3)OCCO4)c2C#N)nc2c1CCNC2 [Example 12, N-[2-cyano-3-(2,3-dihydro-1,4-benzodioxin-6-yl)phenyl]-1-methyl-4,5,6,7-tetrahydro-1H-imidazo[4,5-c]pyridine-2-carboxamide] | ≥ 7.00
13 | Cn1c(C(=O)Nc2cccc(-c3ccc4c(c3)OCCO4)c2C#N)nc2c1CCN(CCO)C2 [Example 13, N-(2-cyano-3-(2,3-dihydrobenzo[b][1,4]dioxin-6-yl)phenyl)-5-(2-hydroxyethyl)-1-methyl-4,5,6,7-tetrahydro-1H-imidazo[4,5-c]pyridine-2-carboxamide] | ≥ 7.00
14 | N#Cc1c(NC(=O)c2nc3n(n2)CCNC3)cccc1-c1ccc2c(c1)OCCO2 [Example 14, N-[2-cyano-3-(2,3-dihydro-1,4-benzodioxin-6-yl)phenyl]-5,6,7,8-tetrahydro[1,2,4]triazolo[1,5-a]pyrazine-2-carboxamide] | 5.00 to 6.30
15 | N#Cc1cccc(-c2cccc(NC(=O)c3nc4c(s3)CNCC4)c2C#N)c1F [Example 15, N-(2,3′-dicyano-2′-fluorobiphenyl-3-yl)-4,5,6,7-tetrahydro[1,3]thiazolo[5,4-c]pyridine-2-carboxamide] | 6.30 to 7.00
16 | COc1cccc(-c2cccc(NC(=O)c3nc4c(s3)CNCC4)c2C#N)c1 [Example 16, N-(2-cyano-3′-methoxybiphenyl-3-yl)-4,5,6,7-tetrahydrothiazolo[5,4-c]pyridine-2-carboxamide] | ≥ 7.00

Row | Compound | pIC50
17 | COc1cc(F)cc(-c2cccc(NC(=O)c3nc4c(s3)CNCC4)c2C#N)c1 [Example 17, N-(2-cyano-3′-fluoro-5′-methoxybiphenyl-3-yl)-4,5,6,7-tetrahydro[1,3]thiazolo[5,4-c]pyridine-2-carboxamide] | ≥ 7.00
18 | N#Cc1c(NC(=O)c2nc3c(s2)CNCC3)cccc1-c1ccccc1Cl [Example 18, N-(2′-chloro-2-cyanobiphenyl-3-yl)-4,5,6,7-tetrahydro[1,3]thiazolo[5,4-c]pyridine-2-carboxamide] | ≥ 7.00
19 | COc1cccc(-c2cccc(NC(=O)c3cn4c(n3)CNCC4)c2C#N)c1F [Example 19, N-(2-cyano-2′-fluoro-3′-methoxybiphenyl-3-yl)-5,6,7,8-tetrahydroimidazo[1,2-a]pyrazine-2-carboxamide] | ≥ 7.00
20 | Cc1c(NC(=O)c2nc3c(s2)CNCC3)cccc1-c1ccc2c(c1)OCCO2 [Example 20, N-[3-(2,3-dihydro-1,4-benzodioxin-6-yl)-2-methylphenyl]-4,5,6,7-tetrahydro[1,3]thiazolo[5,4-c]pyridine-2-carboxamide] | ≥ 7.00
21 | COc1cccc(-c2cccc(NC(=O)c3nc4c(s3)CNCC4)c2C)c1F [Example 21, N-(2′-fluoro-3′-methoxy-2-methylbiphenyl-3-yl)-4,5,6,7-tetrahydro[1,3]thiazolo[5,4-c]pyridine-2-carboxamide] | ≥ 7.00
22 | COc1cccc(-c2cccc(NC(=O)c3nc4c(n3C)CCNC4)c2C)c1F [Example 22, N-(2′-fluoro-3′-methoxy-2-methylbiphenyl-3-yl)-1-methyl-4,5,6,7-tetrahydro-1H-imidazo[4,5-c]pyridine-2-carboxamide] | ≥ 7.00
23 | Cc1c(NC(=O)c2nc3c(s2)CNCC3)cccc1-c1cccc2c1cnn2C [Example 23, N-[2-methyl-3-(1-methyl-1H-indazol-4-yl)phenyl]-4,5,6,7-tetrahydro[1,3]thiazolo[5,4-c]pyridine-2-carboxamide] | ≥ 7.00
24 | Cc1c(NC(=O)c2nc3c(s2)CNCC3)cccc1-c1cccc(CO)c1F [Example 24, N-[2′-fluoro-3′-(hydroxymethyl)-2-methylbiphenyl-3-yl]-4,5,6,7-tetrahydro[1,3]thiazolo[5,4-c]pyridine-2-carboxamide] | 5.00 to 6.30
25 | Cc1c(NC(=O)c2nc3c(s2)CNCC3)cccc1-c1cccc2[nH]ncc12 [Example 25, N-[3-(1H-indazol-4-yl)-2-methylphenyl]-4,5,6,7-tetrahydro[1,3]thiazolo[5,4-c]pyridine-2-carboxamide] | ≥ 7.00
26 | Cc1c(NC(=O)c2nc3c(s2)CNCC3)cccc1-c1ccccc1 [Example 26, N-(2-methylbiphenyl-3-yl)-4,5,6,7-tetrahydro[1,3]thiazolo[5,4-c]pyridine-2-carboxamide] | ≥ 7.00
27 | Cc1c(NC(=O)c2nc3c(s2)CN(CCO)CC3)cccc1-c1ccccc1 [Example 27, 5-(2-hydroxyethyl)-N-(2-methylbiphenyl-3-yl)-4,5,6,7-tetrahydrothiazolo[5,4-c]pyridine-2-carboxamide] | ≥ 7.00
28 | Cc1c(NC(=O)c2nc3c(s2)CN(CC(=O)O)CC3)cccc1-c1ccccc1 [Example 28, 2-(2-(2-methylbiphenyl-3-ylcarbamoyl)-6,7-dihydrothiazolo[5,4-c]pyridin-5(4H)-yl)acetic acid] | ≥ 7.00
29 | Cc1c(NC(=O)c2nc3c(s2)CNCC3)cccc1-c1ccc2cn(C)nc2c1 [Example 29, N-[2-methyl-3-(2-methyl-2H-indazol-6-yl)phenyl]-4,5,6,7-tetrahydro[1,3]thiazolo[5,4-c]pyridine-2-carboxamide] | 6.30 to 7.00
30 | Cc1c(NC(=O)c2nc3c(s2)CNCC3)cccc1-c1ccccc1C#N [Example 30, N-(2′-cyano-2-methylbiphenyl-3-yl)-4,5,6,7-tetrahydro[1,3]thiazolo[5,4-c]pyridine-2-carboxamide] | 6.30 to 7.00
31 | Cc1c(NC(=O)c2nc3c(s2)CNCC3)cccc1-c1ccccc1CC#N [Example 31, N-[2′-(cyanomethyl)-2-methylbiphenyl-3-yl]-4,5,6,7-tetrahydro[1,3]thiazolo[5,4-c]pyridine-2-carboxamide] | 5.00 to 6.30
32 | COc1cccc(-c2cccc(NC(=O)c3nc4c(s3)CNCC4)c2Cl)c1F [Example 32, N-(2-chloro-2′-fluoro-3′-methoxybiphenyl-3-yl)-4,5,6,7-tetrahydro[1,3]thiazolo[5,4-c]pyridine-2-carboxamide] | ≥ 7.00
